Where “and” joins values, the source holds several entries; their conditions need not be identical. Equal values may be shown once.
Columns and labels:
[1] = tested on: ChAT; parameters: method as in literature; conditions: ChAT inhibition, experimentally determined value taken from literature; ref literature; cited from earlier work
[2] = target: T1, BuChE (Homo sapiens, UniProt P06276); experiment: biochemical
T1 construct: a 1:400 diluted solution of a pooled human plasma sample was used; from tissue; host or cells: pooled human plasma
Protocol: (§1) A modified version of Ellman’s colorimetric assay was used for the enzymatic activity of BuChE and AChE, as described previously. For BuChE activity, 50 μL/well of a 1:400 diluted solution of a pooled human plasma sample was used. For AChE activity, the 1:400 diluted pooled human plasma samples had been supplied with 50 ng/ml of purified AChE protein (Sigma). These were preincubated with 50 μL/wells of different concentrations of α-NETA for 30 minutes at room temperature. Then, 100 μL of a cocktail (Na/K phosphate buffer, containing 5,5′-dithiobis(2-nitrobenzoic acid) (DTNB, final concentration 0.4 mM) and butyrylthiocholine iodide (Sigma, final concentration 5 mM) or acetylthiocholine iodide (Sigma, final concentration 0.5 mM) were added and the changes in absorbance was monitored at one minutes intervals at 412 nm wavelength. For the AChE activity, the cocktail also contained the selective BuChE inhibitor ethopropazine (Sigma, final concentration 0.1 mM).

[3] = target: T2, recombinant human ChAT (Homo sapiens, UniProt P28329); experiment: Colorimetric ChAT assay with recombinant human ChAT protein; type: biochemical
T2 construct: His6 (N); made in house; host or cells: E. coli BL21 Rosetta2
T2 sequence (P28329 1-630 isoform P28329-3): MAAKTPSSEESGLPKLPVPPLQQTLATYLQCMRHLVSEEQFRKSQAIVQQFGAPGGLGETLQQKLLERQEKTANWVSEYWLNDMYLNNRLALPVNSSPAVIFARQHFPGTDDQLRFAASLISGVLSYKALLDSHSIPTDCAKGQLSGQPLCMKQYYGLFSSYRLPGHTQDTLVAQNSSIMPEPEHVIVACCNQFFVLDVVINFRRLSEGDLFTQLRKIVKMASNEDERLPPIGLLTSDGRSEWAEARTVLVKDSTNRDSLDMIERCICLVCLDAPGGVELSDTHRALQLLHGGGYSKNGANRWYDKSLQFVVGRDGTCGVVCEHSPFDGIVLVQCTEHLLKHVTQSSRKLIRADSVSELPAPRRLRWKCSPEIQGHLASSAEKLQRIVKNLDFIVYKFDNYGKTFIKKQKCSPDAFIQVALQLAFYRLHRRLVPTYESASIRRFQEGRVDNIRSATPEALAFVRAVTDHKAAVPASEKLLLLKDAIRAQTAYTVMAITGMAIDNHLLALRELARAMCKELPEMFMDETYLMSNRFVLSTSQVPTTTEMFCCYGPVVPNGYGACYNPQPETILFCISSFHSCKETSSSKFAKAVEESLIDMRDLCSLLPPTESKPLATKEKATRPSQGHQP
Protocol: ChAT activity was measured with a new colorimetric assay as described previously, using recombinant ChAT protein. Briefly, 20 μL/wells of 1.5 μg/ml of the recombinant ChAT was incubated with 20 μL/well of different concentrations of α-NETA for 30 minutes at room temperature in dilution buffer (10 mM Tris-HCl, pH 7.4, 150 mM NaCl, 1.0 mM EDTA, 0.05% (v/v) Triton X-100). […]
Then 50 μl of a cocktail-B [phosphate buffered saline, containing 0.93 U/ml choline oxidase (C5896, Sigma-Aldrich), 1/5000 U streptavidin-horseradish peroxidase, 6.3 mM phenol, and 3 mM 4-aminoantipyrine (A4382, Sigma-Aldrich)] was added to each sample including the standards. Absorbance was then monitored using a microplate spectrophotometer reader (Infinite M1000, Tecan) at 500 nm wavelength. ChAT activity (nmol/min/mg of recombinant protein) was calculated according to the following formula: ChAT activity [ChBL-ChS]/t/m, where ChBL is the measured number of mole of choline in control wells lacking the inhibitor and ChAT, ChS is the measured number of mole of choline in the sample wells, the t is the incubation time and m is the mass of ChAT protein added per sample well. […]

[4] = target: T3, AChE (Homo sapiens, UniProt P22303); experiment: Modified Ellman's colorimetric assay, AChE activity; type: biochemical
T3 construct: purchased Sigma
Protocol: as §1

[5] = tested on: purified human placental ChAT; parameters: method as in PMID 3361452; conditions: cited from earlier work

T3 sequence (P22303 32-614): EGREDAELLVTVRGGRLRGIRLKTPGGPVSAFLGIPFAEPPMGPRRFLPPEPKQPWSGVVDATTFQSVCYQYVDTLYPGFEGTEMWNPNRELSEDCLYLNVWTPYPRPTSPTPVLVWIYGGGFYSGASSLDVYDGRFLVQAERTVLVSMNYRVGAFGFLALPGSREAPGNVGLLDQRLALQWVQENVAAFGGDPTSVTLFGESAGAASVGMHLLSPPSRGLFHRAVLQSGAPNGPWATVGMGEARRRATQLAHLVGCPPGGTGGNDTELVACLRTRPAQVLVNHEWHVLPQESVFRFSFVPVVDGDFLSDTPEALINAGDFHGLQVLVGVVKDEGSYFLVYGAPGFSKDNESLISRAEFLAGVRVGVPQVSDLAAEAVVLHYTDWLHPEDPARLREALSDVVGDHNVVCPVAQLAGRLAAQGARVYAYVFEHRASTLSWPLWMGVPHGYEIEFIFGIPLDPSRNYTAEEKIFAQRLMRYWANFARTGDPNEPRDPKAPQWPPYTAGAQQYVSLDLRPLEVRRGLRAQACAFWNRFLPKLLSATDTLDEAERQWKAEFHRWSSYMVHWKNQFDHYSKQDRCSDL
T1 sequence (P06276 29-602): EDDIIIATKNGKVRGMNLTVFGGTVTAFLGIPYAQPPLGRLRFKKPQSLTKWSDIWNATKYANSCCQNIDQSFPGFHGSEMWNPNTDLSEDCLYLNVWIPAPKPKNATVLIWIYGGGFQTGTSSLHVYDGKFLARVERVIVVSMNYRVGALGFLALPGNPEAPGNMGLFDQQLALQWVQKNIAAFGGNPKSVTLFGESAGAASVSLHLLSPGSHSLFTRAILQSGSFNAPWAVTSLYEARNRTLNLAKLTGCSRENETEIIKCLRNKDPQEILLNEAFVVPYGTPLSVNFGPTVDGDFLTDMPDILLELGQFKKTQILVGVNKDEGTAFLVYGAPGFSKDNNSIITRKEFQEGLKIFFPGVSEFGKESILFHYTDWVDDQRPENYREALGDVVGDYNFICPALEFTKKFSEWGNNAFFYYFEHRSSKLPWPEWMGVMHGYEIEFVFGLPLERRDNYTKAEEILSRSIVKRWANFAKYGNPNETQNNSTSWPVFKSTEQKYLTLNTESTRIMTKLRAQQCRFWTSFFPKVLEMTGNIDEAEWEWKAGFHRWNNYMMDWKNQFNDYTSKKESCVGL

SMILES	Actual pIC50 / Observed pIC50 [1]	also measured
C[n+]1ccc(/C=C/c2cccc3ccccc23)cc1 [Compound 1]	6.33	–
C[n+]1ccc(/C=C/c2cccc(Br)c2)cc1 [Compound 2]	5.83	–
C[n+]1ccc(/C=C/c2cccc(Cl)c2)cc1 [Compound 3]	5.64	–
C[n+]1ccc(/C=C/c2ccc(Br)cc2)cc1 [Compound 4]	5.59	–
C[n+]1ccc(/C=C/c2ccc(Cl)c(Cl)c2)cc1 [Compound 5]	5.48	–
C[n+]1ccc(/C=C/c2ccc(Cl)cc2)cc1 [Compound 6]	5.16	–
C[n+]1ccc(/C=C/c2ccccc2)cc1 [Compound 7]	4.83	–
Cc1ccc(/C=C/c2cc[n+](C)cc2)cc1 [Compound 8]	4.70	–
C[n+]1ccc(/C=C/c2ccc(F)cc2)cc1 [Compound 9]	4.68	–
C[n+]1ccc(/C=C/c2ccccc2Cl)cc1 [Compound 10]	4.56	–
C[n+]1ccc(/C=C/c2cccc([N+](=O)[O-])c2)cc1 [Compound 11]	3.83	–
C[n+]1ccc(/C=C/c2ccc([N+](=O)[O-])cc2)cc1 [Compound 12]	3.70	–
Cc1c[n+](C)ccc1/C=C/c1cccc2ccccc12 [Compound 13]	6.40	–
Cc1c[n+](C)ccc1/C=C/c1cccc(Cl)c1 [Compound 14]	5.80	–
Cc1c[n+](C)ccc1/C=C/c1ccc(Cl)c(Cl)c1 [Compound 15]	5.77	–
Cc1c[n+](C)ccc1/C=C/c1ccccc1 [Compound 16]	5.30	–
Cc1c[n+](C)ccc1/C=C/c1ccccc1Cl [Compound 17]	4.77	–
Cc1c[n+](C)ccc1/C=C/c1c[nH]c2ccccc12 [Compound 18]	4.41	–
OCC[n+]1ccc(/C=C/c2cccc(Br)c2)cc1 [Compound 19]	5.38	–
OCC[n+]1ccc(/C=C/c2cccc(Cl)c2)cc1 [Compound 20]	5.62	–
C[n+]1ccc(/C=C/c2ccccc2)c2ccccc21 [Compound 21]	5.46	–
C[n+]1ccc(/C=C/c2cccs2)c2ccccc21 [Compound 22]	3.60	–
C[n+]1ccc(/C=C/c2cccnc2)c2ccccc21 [Compound 23]	3.22	–
OCC[n+]1ccc(/C=C/c2cccc3ccccc23)c2ccccc21 [Compound 24]	6.28	–
OCC[n+]1ccc(/C=C/c2ccccc2)c2ccccc21 [Compound 25]	5.54	–
C[N+](C)(C)CCC(=O)c1cccc2ccccc12.[I-] [α-NETA, 2-(α-naphthoyl) ethyltrimethylammonium iodide]	–	inhibition at 3 µM ([2]; at a concentration of 3 μM): 10%; selectivity for ChAT relative to BuChE ([2]; based on IC50 ratios): ~ 378 fold; IC50 ([2]; pooled human plasma, 30 min preincubation): ~30 µM and 33.3 µM; higher potency as ChAT inhibitor in this system than reported ([3]; IC50 88 nM versus reported ~9 μM): ~ 100 folds; IC50 ([3]; recombinant human ChAT, 30 min preincubation): ~0.088 µM and 0.088 µM; IC50 ([4]; 30 min preincubation): ~30 µM and 34.2 µM; inhibition at 10 µM ([4]; at a concentration of 10 μM): 10%; selectivity for ChAT compared to AChE ([4]; based on IC50 ratios): 388 fold and ~ 388 fold; Observed pIC50 (reported pIC50) [5]: 5.05; IC50 ([5]; read-out: IC50 (reported, ChAT)): ~9 µM

From PMC4978996 (Scientific Reports, 2016)
